The values below come from patent US8598132B2, “Glycosylated indolocarbazoles, method for obtaining same and uses thereof” (Universidad de Oviedo, priority 2008, dated 2013).

In one assay the target is T1, Erk2 (Homo sapiens, UniProt P28482).
T1 construct: purchased Carna Biosciences
The assay can be described thus: LabChip (Caliper) kinase assay, Erk2. As to conditions: read-out: remaining kinase activity (in %) / percentage of inhibition; for inhibition at 0.01 µM: compound at 10 nM; for inhibition at 0.1 µM: compound at 100 nM. The class given is biochemical. The method, then: (§1) The analysis of kinase activity described here was performed using LabChip (Caliper Life Sciences), specifically the Caliper LC3000 and the EZ Reader II instruments.
(§2) The kinase assay used measures the conversion of a fluorescent peptide (substrate) to a phosphorylated product. The reaction mixture, in a microplate well, is introduced by a capillary in a chip where the non-phosphorylated substrate and the phosphorylated product are separated by […]. The intensity of the fluorescent signal over time is related to the reaction progress. The phosphorylated product migrates quicker than the non-phosphorylated substrate and the signals of the two forms of the peptide appear as differentiated peaks. The Caliper determines the peak height and calculates the ratio of product to the peak sum (P/(P+S)). This value is used to compare wells with compounds and wells with controls and thus determine the % of inhibition for the given product.
(§3) The followings kinases were used for the enzymatic inhibition studies, between brackets the value of the Michaelis-Menten constant, Km, of the ATP (Adenosine triphosphate) for each kinase, in μM: obtained from Carna Biosciences: MAPKAPK2 (4.6), AurA (3.6), AurB (5), PKCζ (3.8), RSK1 (23.3), PRAK (5), Erk1 (33.4), PKD2 (32.1), CK1d (16.3), CHK1 (33), ABL (61.7), FYN (36), LYNa (17), CHK2 (57.8), MET (79.5), LCK (28.5), SRC (38), GSK3β (7.3), Erk2 (62.1), PKACα (1.7), AKT2 (186.1), INSR (871.8), p38a (396.5), AKT1(48), MSK1 (21.2), PKCβ2 (84.8), ROCK2 (3.3), PIM2 (4.9), AMPK (38.6), KDR (164.8), IRAK4 (196.5), SGK1 (121.8), SYK (33.5); obtained from Invitrogen: CDK2 (57.6), BTK (123), HGK (80); obtained from Upstate: MST2 (36.6), PKGα (16), PAK2 (1.9), IGF1R (320), FGFR1 (171), MARK1 (33), CAMK2δ (22.4), c-TAK1 (66), DYRK1a (18.1), CaMK4 (3.9), FLT3 (350), c-Raf (6.2), P70S6K (95).
(§4) The compounds were dissolved in 100% DMSO and were diluted at 25 times the final concentration desired for the assay. In the case of the determination of Cl50, serial dilutions were made to reach eight concentrations and give rise to the inhibition curve. 1 μL of each concentration is transferred, in duplicate to a 384-well microplate. 12 μL of enzymatic buffer is added to each well containing purified kinase (several suppliers as indicated above), 100 mM HEPES, pH 7.5, 1 mM DTT (Calbiochem), 0.002% Brij-35 (Sigma) and also in presence of 10 mM MgCl2 as cofactor, except for INSR and IRAK4 wherein 10 mM MnCl2 is used instead of MgCl2. For the kinases CAMK26 and CAMK4, 1 mM CaCl2 and 6.7 μg/mL of calmodulin are also added. For KDR kinase, 0.05% of the CHAPSO detergent is added. For the c-Raf kinase, 10 mM MnCl2 is added. For PKCβ2 0.02 μg/mL of PS/PMA is added. For PKGα se 10 μM of cGMP (cyclic guanosine monophosphate) is added. The compound and the enzyme are left for 15 minutes preincubation and, then, the following are added to each well: 12 μL of peptide buffer/ATP containing 100 mM HEPES, pH 7.5, 1.5 μM peptide marker with fluorescein (specific for the corresponding kinase), ATP (at concentration KM), and 0.002% Brij-35 to start the reaction. Generally, the reactions are incubated for 1-1.5 h at ambient temperature to obtain an adequate conversion (15-40%) of the peptide to the phosphorylated product. The reactions were ended by the addition of 45 μL of buffer containing 0 mM EDTA. The microplates were read by the LabChip 3000 using a 12-channel LabChip. The P/(P+S) values were obtained as described above and the CI50 curves were generated using XIfit. […]

A further assay deals with T2, SGK1 (Homo sapiens, UniProt O00141).
T2 construct: purchased Carna Biosciences
T2 sequence (O00141 1-431): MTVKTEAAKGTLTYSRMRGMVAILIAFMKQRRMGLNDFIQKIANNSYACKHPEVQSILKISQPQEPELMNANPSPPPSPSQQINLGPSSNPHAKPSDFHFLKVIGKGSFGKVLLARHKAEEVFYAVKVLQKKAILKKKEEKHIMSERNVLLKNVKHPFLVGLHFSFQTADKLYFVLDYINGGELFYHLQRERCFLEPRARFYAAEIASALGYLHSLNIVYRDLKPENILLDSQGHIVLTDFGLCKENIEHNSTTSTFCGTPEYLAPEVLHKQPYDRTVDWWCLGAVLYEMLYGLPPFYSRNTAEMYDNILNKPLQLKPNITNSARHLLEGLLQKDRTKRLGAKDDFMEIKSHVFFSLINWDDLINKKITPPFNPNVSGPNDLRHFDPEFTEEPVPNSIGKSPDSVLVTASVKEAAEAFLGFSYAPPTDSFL
In words: LabChip (Caliper) kinase assay, SGK1. The class given is biochemical. As to conditions: read-out: remaining kinase activity (in %) / percentage of inhibition; for inhibition at 0.01 µM: compound at 10 nM; for inhibition at 0.1 µM: compound at 100 nM. The method, then: as §1, §2, §3, §4

T1 sequence (P28482 whole entry): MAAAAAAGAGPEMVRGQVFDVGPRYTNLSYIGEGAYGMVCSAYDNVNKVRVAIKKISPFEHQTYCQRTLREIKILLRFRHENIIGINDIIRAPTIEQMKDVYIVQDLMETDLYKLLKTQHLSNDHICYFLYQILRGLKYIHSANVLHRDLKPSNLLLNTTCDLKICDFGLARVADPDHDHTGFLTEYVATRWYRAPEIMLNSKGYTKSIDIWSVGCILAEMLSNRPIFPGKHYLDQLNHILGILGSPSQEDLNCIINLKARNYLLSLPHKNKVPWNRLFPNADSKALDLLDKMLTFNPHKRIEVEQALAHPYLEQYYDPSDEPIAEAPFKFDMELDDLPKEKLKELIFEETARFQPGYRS

Take `C[C@@H]1O[C@@H](n2c3ccccc3c3c4c(c5c6ccccc6[nH]c5c32)C(=O)NC4=O)[C@H](O)[C@H](O)[C@H]1O` [formula (III), N^13-1′-β-L-rhamnosylarcyriaflavin]: at Erk2, the inhibition at 0.01 µM is -6% and the inhibition at 0.1 µM was -4%. Further, at SGK1, the inhibition at 0.01 µM was determined as 8% and the inhibition at 0.1 µM came out at 13%.
For the molecule `C[C@@H]1O[C@@H](n2c3ccccc3c3c4c(c5c6ccccc6[nH]c5c32)C(=O)NC4=O)C[C@H](O)[C@H]1O` [formula (IV), N^13-1′-β-L-olivosylarcyriaflavin], at Erk2, the inhibition at 0.01 µM is -2% and the inhibition at 0.1 µM was -3%. For the same molecule, at SGK1, the inhibition at 0.01 µM amounted to 9% and the inhibition at 0.1 µM was determined as 17%.
Regarding `C[C@@H]1O[C@@H](n2c3ccccc3c3c4c(c5c6ccccc6[nH]c5c32)C(=O)NC4=O)C[C@@H](O)[C@H]1O` [formula (V), N^13-1′-β-L-digitoxosylarcyriaflavin], on Erk2, the inhibition at 0.01 µM is -4% and the inhibition at 0.1 µM came out at 0%. On SGK1, the inhibition at 0.01 µM turned out to be 17% and the inhibition at 0.1 µM came out at 37%.
For `C[C@H]1O[C@@H](n2c3ccccc3c3c4c(c5c6ccccc6[nH]c5c32)C(=O)NC4=O)C[C@@H](O)[C@@H]1O` [formula (VI), N^13-1′-β-D-olivosylarcyriaflavin], in that order: -1%, 30%, 12% and 27%.
The like results for `C[C@@H]1O[C@@H](n2c3ccccc3c3c4c(c5c6ccccc6[nH]c5c32)CNC4=O)[C@H](O)[C@H](O)[C@H]1O` [formula (XII), N^13-1′-β-L-rhamnosyl-k252c] were, in that order, -3%, -1%, 7% and 6%.
As for `C[C@@H]1O[C@@H](n2c3ccccc3c3c4c(c5c6ccccc6[nH]c5c32)CNC4=O)C[C@H](O)[C@H]1O` [formula (XIII), N^13-1′-β-L-olivosyl-k252c], at Erk2, the inhibition at 0.01 µM was -4% and the inhibition at 0.1 µM is 3%. Further, on SGK1, the inhibition at 0.01 µM turned out to be 8% and the inhibition at 0.1 µM worked out at 15%.
The like results for `C[C@@H]1O[C@@H](n2c3ccccc3c3c4c(c5c6ccccc6[nH]c5c32)CNC4=O)C[C@@H](O)[C@H]1O` [formula (XIV), N^13-1′-β-L-digitoxosyl-k252c] were, in that order, -4%, 0%, 6% and 14%.
For `C[C@H]1O[C@@H](n2c3ccccc3c3c4c(c5c6ccccc6[nH]c5c32)CNC4=O)C[C@@H](O)[C@@H]1O` [formula (XV), N^13-1′-β-D-olivosyl-k252c], in that order: -4%, -2%, 9% and 12%.
